This experiment deals with whole blood. Briefly: Recalcified clotting time of citrated whole blood, aprotinin and lipidated tissue factor added at assay initiation. In kind it is biochemical. An excerpt:
In the previous examples, blood was always collected in the presence of a calcium-chelating anticoagulant (citrate) and contact pathway inhibitor (aprotinin or corn trypsin inhibitor). It would be desirable for certain applications, for example hospital emergency department use, if blood could be […] into a standard commercially available and FDA-approved sodium citrate tube, such as that supplied by Becton Dickinson, Franklin Lakes, N.J. and Greiner America, Monroe, N.C. and the contact pathway inhibitor added concomitantly during assay initiation with lipidated tissue factor and divalent calcium. In this example, blood from a single donor was collected into sterile evacuated-tubes containing 3.2% buffered sodium citrate (Greiner). In FIG. 7A, clotting was initiated with calcium in the presence or absence of 15,000 KIU/ml aprotinin (Centerchem Inc., Norwalk, Conn.). […] In contrast, blood recalcified in the absence of aprotinin clotted in 250 sec. Thus, the contact pathway of blood coagulation has been abolished. FIG. 7B depicts a dose-response to Lovenox® when citrated blood was recalcified in the presence of 15,000 U/ml aprotinin and 10 units of lipidated tissue factor.
(>1500 sec) to 180 sec. The correlation (R^2) of clotting time to Enoxaparin® dose was 0.9915. The slope was 550 and intercept 210 sec. […]

Take “lipidated tissue factor: lipidated recombinant tissue factor with synthetic phospholipids, procoagulant that initiates the extrinsic pathway”: the recalcified clotting time (citrated blood recalcified with 15,000 U/ml aprotinin and 10 units of lipidated tissue factor) is 180 s.

As for aprotinin, the recalcified clotting time (citrated blood, calcium and 15,000 KIU/ml aprotinin, no tissue factor, 1500 sec maximal clotting time, FIG. 7A) was over 1500 s.
